Experimental data from PMC3216989, “Bluetongue Virus VP1 Polymerase Activity In Vitro: Template Dependency, Dinucleotide Priming and Cap Dependency” (PLoS ONE, 2011).

Biological target: T1, BTV VP1 (his-tagged VP1) (Bluetongue virus (serotype 10 / American isolate), UniProt P13840)
T1 construct: gene Segment-1; tag cleavage not mentioned
Experiment: in vitro polymerase assay, [α-32P]CTP incorporation into dsRNA, native PAGE
Format: biochemical
Conditions: 20 pmol in 50 µl, uncapped T7 S9 ssRNA template, Mg2+, Mn2+, pH 7.4, 37 °C, 5 h

T1 sequence (P13840 whole entry): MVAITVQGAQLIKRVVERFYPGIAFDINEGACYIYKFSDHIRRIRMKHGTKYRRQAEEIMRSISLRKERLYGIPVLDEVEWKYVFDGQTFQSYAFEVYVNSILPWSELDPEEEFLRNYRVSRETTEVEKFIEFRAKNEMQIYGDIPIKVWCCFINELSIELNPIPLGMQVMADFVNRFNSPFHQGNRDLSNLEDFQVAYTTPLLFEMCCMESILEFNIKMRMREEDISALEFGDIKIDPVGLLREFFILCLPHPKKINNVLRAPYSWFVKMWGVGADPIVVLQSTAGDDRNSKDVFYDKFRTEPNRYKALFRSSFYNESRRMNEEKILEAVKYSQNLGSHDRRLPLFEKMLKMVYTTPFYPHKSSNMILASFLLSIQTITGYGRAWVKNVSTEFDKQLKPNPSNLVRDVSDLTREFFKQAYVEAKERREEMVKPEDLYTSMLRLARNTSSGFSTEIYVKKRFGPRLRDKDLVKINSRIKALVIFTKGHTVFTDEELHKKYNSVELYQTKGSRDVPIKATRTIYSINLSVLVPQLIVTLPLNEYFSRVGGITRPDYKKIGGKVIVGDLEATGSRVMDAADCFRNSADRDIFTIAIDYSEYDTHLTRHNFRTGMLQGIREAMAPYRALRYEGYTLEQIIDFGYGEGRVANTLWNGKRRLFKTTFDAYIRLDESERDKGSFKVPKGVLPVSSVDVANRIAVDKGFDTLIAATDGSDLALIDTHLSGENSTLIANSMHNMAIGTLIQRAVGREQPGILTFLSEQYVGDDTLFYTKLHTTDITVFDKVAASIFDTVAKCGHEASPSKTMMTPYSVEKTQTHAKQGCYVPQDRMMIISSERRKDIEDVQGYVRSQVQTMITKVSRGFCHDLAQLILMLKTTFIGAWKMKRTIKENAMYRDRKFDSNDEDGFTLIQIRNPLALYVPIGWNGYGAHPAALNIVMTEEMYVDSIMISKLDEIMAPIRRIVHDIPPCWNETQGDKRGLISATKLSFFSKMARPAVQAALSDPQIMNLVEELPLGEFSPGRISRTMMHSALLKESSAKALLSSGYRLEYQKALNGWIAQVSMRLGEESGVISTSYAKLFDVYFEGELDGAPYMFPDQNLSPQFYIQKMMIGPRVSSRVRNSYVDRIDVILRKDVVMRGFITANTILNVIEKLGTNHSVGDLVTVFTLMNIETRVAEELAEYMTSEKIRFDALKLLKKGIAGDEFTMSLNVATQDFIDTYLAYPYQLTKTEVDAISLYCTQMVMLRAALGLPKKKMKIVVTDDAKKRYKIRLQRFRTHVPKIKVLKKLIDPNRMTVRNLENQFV

## Nc1nc2c(ncn2[C@@H]2O[C@H](COP(=O)(O)OP(=O)(O)OP(=O)(O)OC[C@H]3O[C@@H](n4cnc5c(=O)[nH]c(N)nc54)[C@H](O)[C@@H]3O)[C@@H](O)[C@H]2O)c(=O)[nH]1 [GpppG]
activator, allosteric proposed
  fold of control: enhanced by the addition of all cap analogues, with GpppG showing the greatest enhancement

## C[n+]1cn([C@@H]2O[C@H](COP(=O)(O)OP(=O)(O)OP(=O)(O)OC[C@H]3O[C@@H](n4cnc5c(=O)[nH]c(N)nc54)[C@H](O)[C@@H]3O)[C@@H](O)[C@H]2O)c2nc(N)[nH]c(=O)c21 [m7GpppG]
activator, allosteric proposed
  fold of control: dsRNA synthesis from both capped and uncapped T7 S9 ssRNA was enhanced

## Nc1nc2c(ncn2[C@@H]2O[C@H](COP(=O)(O)OP(=O)(O)OP(=O)(O)OC[C@H]3O[C@@H](n4cnc5c(N)ncnc54)[C@H](O)[C@@H]3O)[C@@H](O)[C@H]2O)c(=O)[nH]1 [GpppA]
activator, allosteric proposed
  fold of control: dsRNA synthesis from both capped and uncapped T7 S9 ssRNA was enhanced

## Nc1nc2c(ncn2[C@@H]2O[C@H](COP(=O)(O)O[C@H]3[C@@H](O)[C@H](n4cnc5c(N)ncnc54)O[C@@H]3CO)[C@@H](O)[C@H]2O)c(=O)[nH]1 [ApG]
Priming dinucleotide
  fold of control: GpG and ApG, which complement only the last nucleotide

## Nc1nc2c(ncn2[C@@H]2O[C@H](COP(=O)(O)O[C@H]3[C@@H](O)[C@H](n4cnc5c(=O)[nH]c(N)nc54)O[C@@H]3CO)[C@@H](O)[C@H]2O)c(=O)[nH]1 [GpG]
Priming dinucleotide, additional allosteric effect proposed
  fold of control: GpG and ApG, which complement only the last nucleotide

## CO[C@H]1[C@@H](O)[C@H](n2c[n+](C)c3c(=O)[nH]c(N)nc32)O[C@@H]1COP(=O)(O)OP(=O)(O)OP(=O)(O)OC[C@H]1O[C@@H](n2cnc3c(=O)[nH]c(N)nc32)[C@H](O)[C@@H]1O [ARCA, 3′-O-methyl-m7GpppG]
activator, allosteric proposed
  fold of control: dsRNA synthesis from both capped and uncapped T7 S9 ssRNA was enhanced
